Assays:
Human Pan T cells = assay: IL-2 Release Detection Assay; format: cell-based; settings: T-cell; for EC50: IL-2 in supernatant by ELISA, anti-CD3 pre-coated plate, 24 hours; for maximal fold induction: Top activation/DMSO control; for activity at 0.1 µM: curve value at 100 nM/DMSO control*100%, read-out: Activation % at 100 nM
Procedure: Isolate Human Pan T cells from PBMC according to T cell isolation kit (Stemcell, 17951). The suspend T cell in RPMI 1640 medium containing 10% FBS, 1% PS and 55 µM β-Mer at a density of 3*10^6 cells/well/3 ml are seeded into 6 well plate, recovered overnight at 37° C.&[…]. Harvest overnight recovered T cells are suspended in fresh RPMI1640 medium containing 10% FBS, 1% PS and 55 μM f-Mer, seeded 1*10^5/well/200 μl cells into the anti-CD3 pre-coated 96 well plate. Add dilutions of compounds into the cells and incubate at 37° C.&5% CO2 for 24 hours. IL-2 in cell supernatant was detected by ELISA Kit (R&D, DY202). Fit the compound EC50 in non-linear regression equation: Y=Bottom+(Top−Bottom)/(1+10^((Log EC50−X)*HillSlope)), X=compound concentration, Y=Activation %. Top and Bottom: Plateaus in same units as Y. Log EC50: same log units as X. Activation fold: Top activation/DMSO control. Activation % at 100 nM: Activation of non-linear regression equation curve at the concentration of 100 nM/DMSO control*100%.

DGKA = biological target: T1, DGKA (Homo sapiens, UniProt P23743); assay: DGKA Inhibition ADP-Glo Assay; format: biochemical; settings: 40 μM ATP
T1 construct: purchased SignalChem D21-10BG
Procedure: The DGKA inhibition reactions were performed using ADP-Glo assay. The reactions were carried out in 50 mM HEPES, 100 mM NaCl, 10 mM MgCl2, 1 mM CaCl2, 0.005% TritonX-100 and 1 mM DTT as working solution (pH=7.5). 30 nL DMSO solution of each test compound (Top concentration […] with 10 point, 4-fold dilution series for each compound) were transferred to 384 well plate by Echo and 5 μL DGKA (SignalChem, D21-10BG) enzyme working solution at 2× final reaction concentration was added to each well. After incubated at 25° C. for 15 minutes, 5 μL substrate working solution contain 40 μM ATP (Promega, V915B) and 200 µM DLG (SignalChem, D430-59) were added to initiate reaction. After enzymatic reaction at 25° C. for 60 min, ADP Glo assay reagents (Promega, V9102) were added and luminescence was recorded using an EnVision following the instruction of manual. […] The IC50 value was calculated via a regression analysis of the inhibition rate.

T1 sequence (P23743 whole entry): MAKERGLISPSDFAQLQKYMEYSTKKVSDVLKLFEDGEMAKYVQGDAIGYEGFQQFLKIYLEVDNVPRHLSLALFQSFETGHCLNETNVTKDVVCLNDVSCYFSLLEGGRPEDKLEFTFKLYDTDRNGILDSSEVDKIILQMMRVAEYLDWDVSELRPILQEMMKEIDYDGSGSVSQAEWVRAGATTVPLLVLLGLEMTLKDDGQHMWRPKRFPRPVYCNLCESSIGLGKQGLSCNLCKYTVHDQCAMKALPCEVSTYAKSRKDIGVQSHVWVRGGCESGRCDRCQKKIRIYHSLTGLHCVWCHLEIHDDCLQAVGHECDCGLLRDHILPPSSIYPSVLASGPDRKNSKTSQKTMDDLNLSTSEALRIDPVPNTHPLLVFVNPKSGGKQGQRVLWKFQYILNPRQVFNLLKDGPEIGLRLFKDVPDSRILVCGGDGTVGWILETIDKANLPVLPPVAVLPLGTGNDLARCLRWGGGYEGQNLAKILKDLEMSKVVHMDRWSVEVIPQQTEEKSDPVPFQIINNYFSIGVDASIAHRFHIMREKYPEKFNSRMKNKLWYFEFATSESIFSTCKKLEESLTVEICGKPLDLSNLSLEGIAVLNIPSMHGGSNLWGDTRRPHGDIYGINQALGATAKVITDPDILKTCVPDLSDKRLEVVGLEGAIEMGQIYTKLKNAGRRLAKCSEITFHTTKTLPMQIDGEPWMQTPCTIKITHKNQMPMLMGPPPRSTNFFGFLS

| EC50 (Human Pan T cells) [nM] | IC50 (DGKA) [nM] | Structure (SMILES) | maximal fold induction (Human Pan T cells) | activity at 0.1 µM (Human Pan T cells) [%] |
| --- | --- | --- | --- | --- |
| 62.8 | 1 to 10 | Cn1c(=O)nc(N2CCOCc3c(C#CC4(C(F)(F)F)CC4)cccc32)c2cc(Cl)c(OCCCN)cc21 [Example 20, 7-(3-aminopropoxy)-6-chloro-1-methyl-4-(6-((1-(trifluoromethyl)cyclopropyl)ethynyl)-2,3-dihydrobenzo[e][1,4]oxazepin-1(5H)-yl)quinazolin-2(1H)-one] | 1.7 | 173 |
| 479 | 1 to 10 | Cn1c(=O)cc(N2CCOCc3c(C#CC4(C(F)(F)F)CC4)cccc32)c2cc(C#N)ccc21 [Example 4, 1-methyl-2-oxo-4-(6-((1-(trifluoromethyl)cyclopropyl)ethynyl)-2,3-dihydrobenzo[e][1,4]oxazepin-1(5H)-yl)-1,2-dihydroquinoline-6-carbonitrile] | 10 | 313 |
| 1370 | < 1 | Cn1c(=O)nc(N2CCOCc3c(C#CC4(C(F)(F)F)CC4)cccc32)c2cc(F)ccc21 [Example 9, 6-fluoro-1-methyl-4-(6-((1-(trifluoromethyl)cyclopropyl)ethynyl)-2,3-dihydrobenzo[e][1,4]oxazepin-1(5H)-yl)quinazolin-2(1H)-one] | 13.2 | 180 |
| 1000 | < 1 | COCCOc1cc2c(cc1Cl)c(N1CCOCc3c(C#CC4(C(F)(F)F)CC4)cccc31)nc(=O)n2C [Example 17, 6-chloro-7-(2-methoxyethoxy)-1-methyl-4-(6-((1-(trifluoromethyl)cyclopropyl)ethynyl)-2,3-dihydrobenzo[e][1,4]oxazepin-1(5H)-yl)quinazolin-2(1H)-one] | 10.2 | 202 |
| 243 | < 1 | Cn1c(=O)nc(N2CCOCc3c(C#CC4(C(F)(F)F)CC4)cccc32)c2cc(Cl)c(OC3CCOCC3)cc21 [Example 25, 6-chloro-1-methyl-7-((tetrahydro-2H-pyran-4-yl)oxy)-4-(6-((1-(trifluoromethyl)cyclopropyl)ethynyl)-2,3-dihydrobenzo[e][1,4]oxazepin-1(5H)-yl)quinazolin-2(1H)-one] | 5.4 | 275 |
| 335 | < 1 | Cn1c(=O)nc(N2CCOCc3c(C#CC4(C(F)(F)F)CC4)cccc32)c2cc(Cl)c(OC3CCOC3)cc21 (centres unmarked) [Example 11, 6-chloro-1-methyl-7-((tetrahydrofuran-3-yl)oxy)-4-(6-((1-(trifluoromethyl)cyclopropyl)ethynyl)-2,3-dihydrobenzo[e][1,4]oxazepin-1(5H)-yl)quinazolin-2(1H)-one] | 8.6 | 324 |
| 702 | < 1 | Cn1c(=O)nc(N2CCOCc3c(C#CC4(C(F)(F)F)CC4)cccc32)c2cc(Cl)c(OCCN)cc21 [Example 32, 7-(2-aminoethoxy)-6-chloro-1-methyl-4-(6-((1-(trifluoromethyl)cyclopropyl)ethynyl)-2,3-dihydrobenzo[e][1,4]oxazepin-1(5H)-yl)quinazolin-2(1H)-one] | 33.9 | 540 |
| 422 | 1 to 10 | Cn1c(=O)cc(N2CCOCc3c(C#CC4(C(F)(F)F)CC4)cccc32)c2cc(Cl)ccc21 [Example 3, 6-chloro-1-methyl-4-(6-((1-(trifluoromethyl)cyclopropyl)ethynyl)-2,3-dihydrobenzo[e][1,4]oxazepin-1(5H)-yl)quinolin-2(1H)-one] | 6.3 | 247 |
| 714 | < 1 | Cn1c(=O)nc(N2CCOCc3c(C#CC4(C(F)(F)F)CC4)cccc32)c2cc(C#N)c(OCCN)cc21 [Example 33, 7-(2-aminoethoxy)-1-methyl-2-oxo-4-(6-((1-(trifluoromethyl)cyclopropyl)ethynyl)-2,3-dihydrobenzo[e][1,4]oxazepin-1(5H)-yl)-1,2-dihydroquinazoline-6-carbonitrile] | 38.4 | 631 |
| 2610 | 1 to 10 | Cn1c(=O)c(C#N)c(N2CCOCc3c(C#CC4(C(F)(F)F)CC4)cccc32)c2cc(F)ccc21 [Example 10, 6-fluoro-1-methyl-2-oxo-4-(6-((1-(trifluoromethyl)cyclopropyl)ethynyl)-2,3-dihydrobenzo[e][1,4]oxazepin-1(5H)-yl)-1,2-dihydroquinoline-3-carbonitrile] | 5.8 | 95.5 |
| 2190 | 1 to 10 | Cn1c(=O)nc(N2CCOCc3c(C#CC4(C(F)(F)F)CC4)cccc32)c2cc(Cl)c(N3CCOCC3)cc21 [Example 19, 6-chloro-1-methyl-7-morpholino-4-(6-((1-(trifluoromethyl)cyclopropyl)ethynyl)-2,3-dihydrobenzo[e][1,4]oxazepin-1(5H)-yl)quinazolin-2(1H)-one] | 25.2 | 234 |
| 265 | < 1 | Cn1c(=O)nc(N2CCOCc3c(C#CC4(C(F)(F)F)CC4)cccc32)c2cc(C#N)c(OCCO)cc21 [Example 14, 7-(2-hydroxyethoxy)-1-methyl-2-oxo-4-(6-((1-(trifluoromethyl)cyclopropyl)ethynyl)-2,3-dihydrobenzo[e][1,4]oxazepin-1(5H)-yl)-1,2-dihydroquinazoline-6-carbonitrile] | 15.3 | 639 |
|  | < 1 | Cn1c(=O)nc(N2CCOCc3c(C#CC4(C(F)(F)F)CC4)cccc32)c2cc(Cl)c(NCCO)cc21 [Example 15, 6-chloro-7-((2-hydroxyethyl)amino)-1-methyl-4-(6-((1-(trifluoromethyl)cyclopropyl)ethynyl)-2,3-dihydrobenzo[e][1,4]oxazepin-1(5H)-yl)quinazolin-2(1H)-one] |  |  |
|  | 1 to 10 | Cn1c(=O)nc(N2CCOCc3c(C#CC4(C(F)(F)F)CC4)cccc32)c2cc(Cl)c(OC3CCNC3)cc21 (centres unmarked) [Example 34, 6-chloro-1-methyl-7-(pyrrolidin-3-yloxy)-4-(6-((1-(trifluoromethyl)cyclopropyl)ethynyl)-2,3-dihydrobenzo[e][1,4]oxazepin-1(5H)-yl)quinazolin-2(1H)-one] |  |  |
